Assays:
Plasmodium falciparum [1] = assay: Antiplasmodial activity against asexual blood-stage (ABS) CQ-sensitive Plasmodium falciparum D6 infected in human erythrocytes assessed as reduction in fluorescence measured after 72 hrs by Malaria SYBR Green I-based Fluorescence (MSF) assay; assay type: functional, organism-based; conditions: D6, Erythrocyte
Plasmodium falciparum [2] = assay: Antiplasmodial activity against asexual blood-stage (ABS) MDR Plasmodium falciparum Dd2 infected in human erythrocytes assessed as reduction in fluorescence measured after 72 hrs by Malaria SYBR Green I-based Fluorescence (MSF) assay; assay type: functional, organism-based; conditions: Dd2, Erythrocyte
Plasmodium falciparum [3] = assay: Antiplasmodial activity against asexual blood-stage (ABS) ATV-resistant clinical isolate Plasmodium falciparum Tm90-C2B infected in human erythrocytes assessed as reduction in fluorescence measured after 72 hrs by Malaria SYBR Green I-based Fluorescence (MSF) assay; assay type: functional, organism-based; conditions: Erythrocyte
HepG2 = assay: Cytotoxicity against human HepG2 cells assessed as cell viability measured after 48 hrs by MTT assay; assay type: functional, cell-based; conditions: HepG2, 48 h
Plasmodium cynomolgi [4] = assay: (§1) Antiplasmodial activity against hypnozoite Plasmodium cynomolgi B strain infected in Macaca mulatta hepatocytes incubated with sporozoite containing salivary gland homogenate obtained from dissected Anopheles dirus mosquitoes (infected with Plasmodium cynomolgi B strain) treatment started on day 4 post infection and continued daily for 4 days into fresh changed media until day 8 assessed as Liver stage (LS) activity by measuring prophylactic mode by immunofluorescent staining analysis; assay type: functional, organism-based; conditions: Hepatocyte
Plasmodium cynomolgi [5] = assay: as §1, with “schizont” for “hypnozoite”; assay type: functional, organism-based; conditions: Hepatocyte
Plasmodium cynomolgi [6] = assay: as §1, with “radical cure” for “prophylactic”; assay type: functional, organism-based; conditions: Hepatocyte
Plasmodium cynomolgi [7] = assay: as §1, with “schizont” for “hypnozoite”, “radical cure” for “prophylactic”; assay type: functional, organism-based; conditions: Hepatocyte
[8] = as §1, with “Selectivity index, ratio of CC50 for Macaca mulatta hepatocytes to IC50 for antiplasmodial” for “Antiplasmodial”; assay type: toxicity, cell-based; conditions: rhesus monkey, read-out: Selectivity Index
[9] = as §1, with “Selectivity index, ratio of CC50 for Macaca mulatta hepatocytes to IC50 for antiplasmodial” for “Antiplasmodial”, “schizont” for “hypnozoite”; assay type: toxicity, cell-based; conditions: rhesus monkey, read-out: Selectivity Index
[10] = Toxicity in CF1 mouse infected with asexual blood-stage (ABS) Plasmodium yoelii MRA-428 assessed as hunching at 0.3 to 30 mg/kg, po treated 24 hrs post infection measured after 4 days; assay type: organism-based; conditions: in vivo, 96 h, dose 0.3-30 mg/kg, time 4 day
[11] = Toxicity in CF1 mouse infected with asexual blood-stage (ABS) Plasmodium yoelii MRA-428 assessed as hyperactivity at 0.3 to 30 mg/kg, po treated 24 hrs post infection measured after 4 days; assay type: organism-based; conditions: in vivo, 96 h, dose 0.3-30 mg/kg, time 4 day
[12] = Toxicity in CF1 mouse infected with asexual blood-stage (ABS) Plasmodium yoelii MRA-428 assessed as lethargy at 0.3 to 30 mg/kg, po treated 24 hrs post infection measured after 4 days; assay type: organism-based; conditions: in vivo, 96 h, dose 0.3-30 mg/kg, time 4 day
[13] = Toxicity in CF1 mouse infected with asexual blood-stage (ABS) Plasmodium yoelii MRA-428 assessed as ruffled hair at 0.3 to 30 mg/kg, po treated 24 hrs post infection measured after 4 days; assay type: organism-based; conditions: in vivo, 96 h, dose 0.3-30 mg/kg, time 4 day
[14] = Toxicity in CF1 mouse infected with asexual blood-stage (ABS) Plasmodium yoelii MRA-428 assessed as weight loss at 0.3 to 30 mg/kg, po treated 24 hrs post infection measured after 4 days; assay type: organism-based; conditions: in vivo, 96 h, dose 0.3-30 mg/kg, time 4 day
Hepatocyte = assay: Cytotoxicity against Macaca mulatta hepatocytes assessed as cell viability measured after 48 hrs by MTT assay; assay type: toxicity, cell-based; conditions: rhesus monkey, 48 h
[15] = mouse, microsomes, 1 h
[16] = as §1, with “Selectivity index, ratio of CC50 for Macaca mulatta hepatocytes to IC50 for antiplasmodial” for “Antiplasmodial”, “schizont” for “hypnozoite”, “radical cure” for “prophylactic”; assay type: toxicity, cell-based; conditions: rhesus monkey, read-out: Selectivity Index
[17] = human, microsomes, 1 h
[18] = as §1, with “Selectivity index, ratio of CC50 for Macaca mulatta hepatocytes to IC50 for antiplasmodial” for “Antiplasmodial”, “radical cure” for “prophylactic”; assay type: toxicity, cell-based; conditions: rhesus monkey, read-out: Selectivity Index

SMILES	IC50 (Plasmodium falciparum [1]) [nM]	IC50 (Plasmodium falciparum [2]) [nM]	IC50 (Plasmodium falciparum [3]) [nM]	IC50 (HepG2) [nM]	IC50 (Plasmodium cynomolgi [4]) [nM]	IC50 (Plasmodium cynomolgi [5]) [nM]	IC50 (Plasmodium cynomolgi [6]) [nM]	IC50 (Plasmodium cynomolgi [7]) [nM]	selectivity ratio at 96 h [8]	selectivity ratio at 96 h [9]	Activity [10]	Activity [11]	Activity [12]	Activity [13]	Activity [14]	CC50 (Hepatocyte) [nM]	CLH [15] [µL/min/mg]	selectivity ratio at 96 h [16]	t1/2 [17] [h]	selectivity ratio at 96 h [18]
O=c1c2c([nH]c3cc(Oc4ccccc4OC(F)(F)F)ccc13)CCCC2	0.023	0.171	0.275	> 200000	7720	640	> 20000	> 20000	> 2.59	> 31.2	Non-toxic	Non-toxic	Non-toxic	Non-toxic	Non-toxic	> 20000	72.1	–	–	–
CCCN(CCC)CCCOc1ccc2c(=O)c3c([nH]c2c1)CCCC3	108	126	162	> 200000	> 20000	5330	> 20000	14000	–	> 3.75	Non-toxic	Non-toxic	Non-toxic	Non-toxic	Non-toxic	> 20000	> 500	> 1.43	–	–
O=c1c2c([nH]c3c(Oc4ccc(OC(F)(F)F)cc4)cccc13)CCCC2	57.5	83.8	219	> 200000	13100	7630	> 20000	17900	> 1.53	> 2.62	Non-toxic	Non-toxic	Non-toxic	Non-toxic	Non-toxic	> 20000	6.85	> 1.12	> 1	–
O=c1c2c([nH]c3cc(Nc4ccc(OC(F)(F)F)cc4)ccc13)CCCC2	0.232	1.85	2.79	> 200000	1090	210	1290	1400	1.66	8.62	Non-toxic	Non-toxic	Non-toxic	Non-toxic	Non-toxic	1810	56	1.29	–	1.4
CCCCN(CCCC)CCCOc1ccc2c(=O)c3c([nH]c2c1)CCCC3	7.2	39.4	59.7	> 200000	> 20000	4920	> 20000	> 20000	–	> 4.06	Non-toxic	Non-toxic	Non-toxic	Non-toxic	Non-toxic	> 20000	> 500	–	–	–
O=c1c2c([nH]c3ccc(F)c(Oc4ccc(OC(F)(F)F)cc4)c13)CCCC2	1360	> 2500	> 2500	–	7320	7400	14000	> 20000	> 2.73	> 2.7	Non-toxic	Non-toxic	Non-toxic	Non-toxic	Non-toxic	> 20000	31.1	–	–	> 1.43
